Measured values from patent US12097329B2, “Apparatus to administer drugs to mechanically ventilated patients” (Chiesi Farmaceutici S.p.A., priority 2018, dated 2024).
Where a name gives a salt, the structure may show the parent alone.

Columns and labels:
[1] = Aerosol performance by Next Generation Impactor (NGI), drug quantified by HPLC; assay type: physicochemical; conditions: BDP + FF 100 + 6 μg/10 mg DPI 37° C. 75% RH T-vol 500; connected to ventilation system through the connector
Experimental: A powder formulation was prepared according to the teaching of Examples 2 and 3 of WO 2013/110632 and loaded in the multi-dose dry powder inhaler described in WO 2016/000983. A ventilator system Monnal T75, available from Air Liquid Medical Systems […], Italy) was used. A Catheter mounth (ID 10 mm, length 17 cm) and an endotracheal catheter (ID 8 mm, length 8.5 cm) were also utilized. Other equipments were standard. The following conditions were set-up: tidal volume: 500 ml; PEEP 5 cmH2O; Flow rate: about 41 l/min; breath frequency: 15 bpm. All tests were performed at room temperature and lung temperature (about 37° C.) with in line humidification (about 75% relative humidity system). The inhaler was connected to the ventilation system through the connector of the invention. The evaluation of the aerosol performance was carried out using the Next Generation Impactor (NGI) according to the conditions reported in the European Pharmacopeia 8.5th Ed 2015, par 2.9.18, pages 309-320. After aerosolization of three doses from the inhaler device, the NGI apparatus was disassembled and the amounts of drug deposited in the stages were recovered by washing with a solvent mixture and then quantified by High-Performance Liquid Chromatography (HPLC).

[2] = as above; assay type: physicochemical; conditions: BDP + FF 100 + 6 μg/10 mg DPI - Release

| Compound | DD (delivered dose) [1] [µg] | EFPF (extrafine particle fraction) [1] [% on DD] | EFPM (extrafine FPM) [1] [µg] | FPF (fine particle fraction) [1] [% on DD] | FPM (fine particle mass, particle size equal to or lower than 5.0 micron) [1] [µg] | DD (delivered dose) [2] [µg] | EFPF (extrafine particle fraction) [2] [% on DD] | EFPM (extrafine FPM) [2] [µg] | FPF (fine particle fraction) [2] [% on DD] | FPM (fine particle mass, particle size equal to or lower than 5.0 micron) [2] [µg] |
| --- | --- | --- | --- | --- | --- | --- | --- | --- | --- | --- |
| CCC(=O)OCC(=O)[C@@]1(OC(=O)CC)[C@@H](C)C[C@H]2[C@@H]3CCC4=CC(=O)C=C[C@]4(C)[C@@]3(Cl)[C@@H](O)C[C@@]21C [BDP, beclometasone dipropionate] | 66.52 | 34.76 | 23.12 | 61.92 | 41.19 | 81.05 | 29.43 | 23.85 | 64.14 | 51.99 |
| COc1ccc(CC(C)NCC(O)c2ccc(O)c(NC=O)c2)cc1 (stereo not drawn) [FF, formoterol fumarate dihydrate] | 3.84 | – | – | – | – | 4.64 | – | – | – | – |
